The test system of test [1] is U-266. Description: Antiproliferative activity against human U-266 cells assessed as cell growth inhibition incubated for 48 hrs by CCK-8 assay. The settings on record: U-266, 48 h. The class given is functional, cell-based. For orientation: Formazan colour is commonly taken as a measure of viable cells.
Test [2] has as its system HeLa. Description: Antiproliferative activity against human HeLa cells assessed as cell growth inhibition at 5 uM incubated for 48 hrs by CCK-8 assay. The class given is functional, cell-based.
The target in test [3] is T1, Protein deacetylase HDAC6 (Homo sapiens) (UniProt Q9UBN7).
T1 sequence (whole entry): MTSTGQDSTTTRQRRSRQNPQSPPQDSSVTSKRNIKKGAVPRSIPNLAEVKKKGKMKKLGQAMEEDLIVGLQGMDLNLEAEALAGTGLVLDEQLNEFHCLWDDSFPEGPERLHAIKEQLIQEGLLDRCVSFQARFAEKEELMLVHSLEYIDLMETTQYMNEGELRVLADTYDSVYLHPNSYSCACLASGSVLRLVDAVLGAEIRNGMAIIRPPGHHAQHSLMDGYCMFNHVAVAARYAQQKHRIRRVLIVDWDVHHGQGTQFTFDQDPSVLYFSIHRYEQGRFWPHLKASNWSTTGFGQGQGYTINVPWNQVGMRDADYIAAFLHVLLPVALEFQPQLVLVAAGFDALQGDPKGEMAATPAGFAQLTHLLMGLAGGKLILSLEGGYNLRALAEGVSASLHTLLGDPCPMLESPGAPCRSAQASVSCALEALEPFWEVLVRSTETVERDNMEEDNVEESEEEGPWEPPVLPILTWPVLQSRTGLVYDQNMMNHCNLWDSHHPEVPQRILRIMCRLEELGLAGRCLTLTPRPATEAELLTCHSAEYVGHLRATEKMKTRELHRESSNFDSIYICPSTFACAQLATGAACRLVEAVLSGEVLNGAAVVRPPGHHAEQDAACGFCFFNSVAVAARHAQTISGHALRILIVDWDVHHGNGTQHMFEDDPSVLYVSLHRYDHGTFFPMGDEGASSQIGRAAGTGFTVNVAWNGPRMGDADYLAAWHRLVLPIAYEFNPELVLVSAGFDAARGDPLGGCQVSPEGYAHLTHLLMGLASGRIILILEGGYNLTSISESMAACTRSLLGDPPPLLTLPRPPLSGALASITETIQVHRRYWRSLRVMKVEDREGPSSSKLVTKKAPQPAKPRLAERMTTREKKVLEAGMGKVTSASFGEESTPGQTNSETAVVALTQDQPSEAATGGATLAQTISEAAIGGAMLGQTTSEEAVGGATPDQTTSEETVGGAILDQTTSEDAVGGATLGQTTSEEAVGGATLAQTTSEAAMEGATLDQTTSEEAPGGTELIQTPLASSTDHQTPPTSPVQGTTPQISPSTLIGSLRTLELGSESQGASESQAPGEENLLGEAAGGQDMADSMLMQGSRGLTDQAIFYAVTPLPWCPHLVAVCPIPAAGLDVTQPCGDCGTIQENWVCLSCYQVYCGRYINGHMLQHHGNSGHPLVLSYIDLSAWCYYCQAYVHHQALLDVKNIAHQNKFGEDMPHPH
Put plainly: Induction of HDAC6 degradation in human RS4-11 cells at 0.5 to 10 uM incubated for 12 hrs by Western blotting analysis. The class given is cell-based. The settings on record: dose 0.5-10 µM. A general note: A western blot detects proteins with antibodies after separation by electrophoresis.

Test [4] concerns the target Histone deacetylase 2 (Homo sapiens, UniProt Q92769). Put plainly: Inhibition of HDAC2 in human HeLa cells nuclear extract using BocLys(acetyl)-AMC as substrate incubated for 1 hr by fluorescence plate reader analysis. The class given is subcellular, Nucleus.
Test [5] addresses T2, Histone deacetylase 11 (Homo sapiens, UniProt Q96DB2).
T2 sequence (Q96DB2 whole entry): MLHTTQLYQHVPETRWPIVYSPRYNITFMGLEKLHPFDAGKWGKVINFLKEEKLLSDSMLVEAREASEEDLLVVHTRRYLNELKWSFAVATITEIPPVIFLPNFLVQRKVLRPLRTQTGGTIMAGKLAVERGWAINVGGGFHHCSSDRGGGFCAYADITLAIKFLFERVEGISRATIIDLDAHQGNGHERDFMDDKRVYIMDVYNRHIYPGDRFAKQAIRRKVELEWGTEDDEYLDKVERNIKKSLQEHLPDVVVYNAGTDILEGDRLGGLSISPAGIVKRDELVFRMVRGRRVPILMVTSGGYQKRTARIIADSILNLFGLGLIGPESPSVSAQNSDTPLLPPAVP
Put plainly: Inhibition of HDAC11 in human HeLa cells nuclear extract using BocLys(acetyl)-AMC as substrate incubated for 1 hr by fluorescence plate reader analysis. The class given is subcellular, Nucleus.

Test [6] has as its system RS4-11. Put plainly: Antiproliferative activity against human RS4-11 cells assessed as cell growth inhibition incubated for 48 hrs by CCK-8 assay. The class given is functional, cell-based. The note with it: RS4-11, 48 h.
The test system of test [7] is K562. Put plainly: Antiproliferative activity against human K562 cells assessed as cell growth inhibition incubated for 48 hrs by CCK-8 assay. The class given is functional, cell-based. The note with it: K562, 48 h.
In test [8] the test system is HCT-116. Description: Antiproliferative activity against human HCT-116 cells assessed as cell growth inhibition at 5 uM incubated for 48 hrs by CCK-8 assay. The class given is functional, cell-based.
For test [9], the system named is A549. Description: Antiproliferative activity against human A549 cells assessed as cell growth inhibition at 5 uM incubated for 48 hrs by CCK-8 assay. The class given is functional, cell-based.
Test [10] concerns the target Histone deacetylase 9 (Homo sapiens, UniProt Q9UKV0). Description: Inhibition of HDAC9 in human HeLa cells nuclear extract using BocLys(acetyl)-AMC as substrate incubated for 1 hr by fluorescence plate reader analysis. The class given is subcellular, Nucleus.
Test [11] addresses T3, Histone deacetylase 7 (Homo sapiens, UniProt Q8WUI4).
T3 sequence (Q8WUI4 whole entry): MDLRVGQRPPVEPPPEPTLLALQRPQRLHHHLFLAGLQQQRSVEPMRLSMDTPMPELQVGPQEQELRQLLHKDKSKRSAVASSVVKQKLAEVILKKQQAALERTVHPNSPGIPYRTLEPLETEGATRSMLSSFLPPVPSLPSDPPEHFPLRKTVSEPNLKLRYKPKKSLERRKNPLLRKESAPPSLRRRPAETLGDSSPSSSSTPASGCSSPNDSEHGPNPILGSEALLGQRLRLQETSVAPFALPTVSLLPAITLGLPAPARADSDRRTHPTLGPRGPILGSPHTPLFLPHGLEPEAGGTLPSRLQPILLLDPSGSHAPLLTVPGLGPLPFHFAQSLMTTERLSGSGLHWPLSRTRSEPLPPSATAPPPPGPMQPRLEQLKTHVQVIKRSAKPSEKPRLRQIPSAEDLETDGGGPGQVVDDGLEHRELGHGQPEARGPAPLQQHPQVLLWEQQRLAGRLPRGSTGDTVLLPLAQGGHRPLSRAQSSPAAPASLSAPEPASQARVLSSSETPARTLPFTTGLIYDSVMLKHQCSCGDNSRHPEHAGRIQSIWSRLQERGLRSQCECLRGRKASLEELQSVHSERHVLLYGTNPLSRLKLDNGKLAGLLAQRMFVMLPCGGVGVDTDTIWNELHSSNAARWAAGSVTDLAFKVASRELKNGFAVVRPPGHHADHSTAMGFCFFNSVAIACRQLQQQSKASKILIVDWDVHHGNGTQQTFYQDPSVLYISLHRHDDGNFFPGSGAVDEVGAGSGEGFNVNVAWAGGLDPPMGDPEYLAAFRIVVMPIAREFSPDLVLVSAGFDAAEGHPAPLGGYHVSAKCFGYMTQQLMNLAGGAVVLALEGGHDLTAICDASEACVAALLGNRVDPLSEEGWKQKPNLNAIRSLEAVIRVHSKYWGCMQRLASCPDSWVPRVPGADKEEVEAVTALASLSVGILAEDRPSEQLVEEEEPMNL
Put plainly: Inhibition of HDAC7 in human HeLa cells nuclear extract using BocLys(acetyl)-AMC as substrate incubated for 1 hr by fluorescence plate reader analysis. The class given is subcellular, Nucleus.

Test [12] deals with RPMI-8226. Put plainly: Antiproliferative activity against human RPMI-8226 cells assessed as cell growth inhibition incubated for 48 hrs by CCK-8 assay. The class given is functional, cell-based. The settings on record: RPMI-8226, 48 h.
For test [13], the target named is Histone deacetylase 4 (Homo sapiens, UniProt P56524). Description: Inhibition of HDAC4 in human HeLa cells nuclear extract using BocLys(acetyl)-AMC as substrate incubated for 1 hr by fluorescence plate reader analysis. The class given is subcellular, Nucleus.
Sequence of Histone deacetylase 4 (P56524 whole entry): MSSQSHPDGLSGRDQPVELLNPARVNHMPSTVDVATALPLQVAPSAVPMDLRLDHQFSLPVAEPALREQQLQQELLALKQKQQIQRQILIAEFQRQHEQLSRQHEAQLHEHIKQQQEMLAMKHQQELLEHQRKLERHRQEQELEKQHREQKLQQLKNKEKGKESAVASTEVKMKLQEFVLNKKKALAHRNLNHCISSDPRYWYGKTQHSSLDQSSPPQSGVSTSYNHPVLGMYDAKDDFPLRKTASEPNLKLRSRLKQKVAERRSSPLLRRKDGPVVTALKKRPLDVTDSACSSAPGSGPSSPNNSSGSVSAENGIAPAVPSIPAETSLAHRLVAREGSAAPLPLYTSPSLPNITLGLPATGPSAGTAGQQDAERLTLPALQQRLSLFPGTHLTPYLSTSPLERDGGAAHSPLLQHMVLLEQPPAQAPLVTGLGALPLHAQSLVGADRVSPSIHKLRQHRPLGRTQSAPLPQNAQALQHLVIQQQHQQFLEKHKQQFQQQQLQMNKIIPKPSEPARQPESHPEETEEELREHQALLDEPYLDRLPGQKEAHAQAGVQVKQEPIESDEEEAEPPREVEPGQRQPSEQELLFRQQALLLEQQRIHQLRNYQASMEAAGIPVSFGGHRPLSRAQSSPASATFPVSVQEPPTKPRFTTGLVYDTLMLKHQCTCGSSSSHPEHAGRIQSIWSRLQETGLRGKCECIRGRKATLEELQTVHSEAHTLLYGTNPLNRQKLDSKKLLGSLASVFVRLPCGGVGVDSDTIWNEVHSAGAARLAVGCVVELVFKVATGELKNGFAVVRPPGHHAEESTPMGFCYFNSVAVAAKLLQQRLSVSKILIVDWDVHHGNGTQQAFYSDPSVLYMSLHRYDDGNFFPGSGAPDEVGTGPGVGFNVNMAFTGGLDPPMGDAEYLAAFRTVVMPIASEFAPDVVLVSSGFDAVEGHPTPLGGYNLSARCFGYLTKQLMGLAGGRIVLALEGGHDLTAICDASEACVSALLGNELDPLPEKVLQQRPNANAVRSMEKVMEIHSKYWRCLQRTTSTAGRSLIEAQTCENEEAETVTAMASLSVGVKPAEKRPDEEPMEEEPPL
The target of test [14] is Histone deacetylase 1 (Homo sapiens, UniProt Q13547). Put plainly: Induction of HDAC1 degradation in human RS4-11 cells at 0.5 to 10 uM incubated for 12 hrs by Western blotting analysis. The class given is cell-based. The settings on record: dose 0.5-10 µM.
Sequence of Histone deacetylase 1 (Q13547 whole entry): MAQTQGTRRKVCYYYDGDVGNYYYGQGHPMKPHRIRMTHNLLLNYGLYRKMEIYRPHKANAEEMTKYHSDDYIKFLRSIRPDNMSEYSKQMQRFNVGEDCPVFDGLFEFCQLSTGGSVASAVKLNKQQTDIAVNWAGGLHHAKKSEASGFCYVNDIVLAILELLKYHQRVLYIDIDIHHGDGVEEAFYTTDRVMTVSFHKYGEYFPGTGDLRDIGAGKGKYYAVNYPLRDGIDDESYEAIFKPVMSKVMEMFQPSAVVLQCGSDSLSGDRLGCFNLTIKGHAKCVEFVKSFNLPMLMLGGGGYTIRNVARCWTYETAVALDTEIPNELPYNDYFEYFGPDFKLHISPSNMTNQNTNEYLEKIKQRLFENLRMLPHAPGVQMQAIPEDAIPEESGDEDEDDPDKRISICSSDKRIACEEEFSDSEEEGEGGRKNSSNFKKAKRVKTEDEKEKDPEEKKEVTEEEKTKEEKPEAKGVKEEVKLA

One compound from ChEMBL document CHEMBL5532657, “Serendipitous discovery of Class I HDAC inhibitors from rational design of molecular glue degraders targeting HDAC” (Eur J Med Chem, 2024) can be followed below.

The structures appear in SMILES notation. Active and inactive are the calls of the source. No cut-off for these calls is given here.

Sequence of Histone deacetylase 9 (Q9UKV0 whole entry): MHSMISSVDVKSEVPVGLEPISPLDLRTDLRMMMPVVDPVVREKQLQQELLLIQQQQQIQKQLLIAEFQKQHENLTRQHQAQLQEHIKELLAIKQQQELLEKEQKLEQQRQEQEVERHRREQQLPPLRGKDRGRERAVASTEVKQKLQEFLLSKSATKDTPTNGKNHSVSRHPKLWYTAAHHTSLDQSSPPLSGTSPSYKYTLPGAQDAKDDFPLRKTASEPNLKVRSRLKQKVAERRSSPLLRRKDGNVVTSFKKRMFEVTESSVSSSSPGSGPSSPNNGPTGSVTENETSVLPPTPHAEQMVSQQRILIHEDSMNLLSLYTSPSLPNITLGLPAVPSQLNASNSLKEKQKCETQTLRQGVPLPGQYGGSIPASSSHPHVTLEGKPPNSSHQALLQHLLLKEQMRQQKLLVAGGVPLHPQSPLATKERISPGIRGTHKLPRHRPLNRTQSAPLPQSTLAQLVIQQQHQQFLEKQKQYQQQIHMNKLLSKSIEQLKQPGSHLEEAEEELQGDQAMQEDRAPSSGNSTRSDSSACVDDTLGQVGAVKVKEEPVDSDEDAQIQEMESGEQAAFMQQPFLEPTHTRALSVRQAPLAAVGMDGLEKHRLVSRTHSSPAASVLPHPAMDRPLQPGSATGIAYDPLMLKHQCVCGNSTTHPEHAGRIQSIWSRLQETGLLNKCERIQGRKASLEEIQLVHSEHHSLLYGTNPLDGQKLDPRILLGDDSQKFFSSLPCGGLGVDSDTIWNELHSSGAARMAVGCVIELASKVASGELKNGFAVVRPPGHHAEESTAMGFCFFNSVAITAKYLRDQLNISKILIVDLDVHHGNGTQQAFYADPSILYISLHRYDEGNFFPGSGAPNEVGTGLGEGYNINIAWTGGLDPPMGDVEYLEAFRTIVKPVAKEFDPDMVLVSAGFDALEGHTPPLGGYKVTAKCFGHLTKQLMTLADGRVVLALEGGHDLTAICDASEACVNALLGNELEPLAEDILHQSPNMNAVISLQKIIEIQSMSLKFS
Sequence of Histone deacetylase 2 (Q92769 whole entry): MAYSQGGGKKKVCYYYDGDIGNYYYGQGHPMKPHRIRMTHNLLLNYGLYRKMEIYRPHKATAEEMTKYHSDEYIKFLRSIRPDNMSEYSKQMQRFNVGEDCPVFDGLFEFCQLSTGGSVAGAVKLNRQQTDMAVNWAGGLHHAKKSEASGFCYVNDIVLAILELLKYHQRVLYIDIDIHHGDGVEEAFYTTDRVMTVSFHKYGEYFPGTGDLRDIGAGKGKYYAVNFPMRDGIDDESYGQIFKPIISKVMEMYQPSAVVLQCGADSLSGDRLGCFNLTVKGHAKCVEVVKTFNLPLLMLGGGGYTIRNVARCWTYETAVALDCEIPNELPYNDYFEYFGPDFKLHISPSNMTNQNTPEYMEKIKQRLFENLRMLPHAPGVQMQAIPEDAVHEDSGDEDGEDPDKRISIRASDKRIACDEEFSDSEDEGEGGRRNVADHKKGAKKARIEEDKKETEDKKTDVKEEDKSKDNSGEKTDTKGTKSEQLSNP

`Nc1ccc(F)cc1NC(=O)c1ccc(CNC(=O)/C=C/c2cccnc2)cc1`: the IC50 (usually the midpoint of a concentration-inhibition curve) in test [1] is 4.81 µM; in test [4] it was 0.479 µM; in test [5], more than 2 µM; in [6] it was 0.81 µM; in [7], 21.3 µM; in test [10], more than 2 µM. The IC50 in [11] was more than 2 µM; in test [12], 4.19 µM; in test [13], more than 2 µM. The result in test [2], in [3], in test [8], in [9] and in test [14] was inactive.
